Results on one molecule are retold here after ChEMBL document CHEMBL1201862, “PubChem BioAssay data set” (2004).

Some test systems named below: M14; COLO 205; HCT-15; KM12; TK-10; HL-60; HT-29; UACC-257; MCF7; NCI-H522; SNB-75; SF-539; SK-MEL-5; NCI-H226; 786-0; MOLT-4; SF-295; MDA-N; OVCAR-4; DU-145.
Common to all, as to assay: DTP human tumour cell line panel, 48 h

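96-well plates; 48 h exposure; 5 concentrations. Endpoints by linear interpolation between flanking doses. Not reached: highest tested concentration assigned. GI50: concentration for 50% inhibition of growth.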 The source made the active and inactive calls. Cut-off read from the data, not from the text of the source: active = GI50 up to about 1.1 µM and inactive = higher.

Regarding `O=[N+]([O-])c1ccc2c3c1[C@@H]1O[C@@H]1c1cccc(c1-3)[C@@H]1O[C@H]21`, the GI50 (as a rule, the concentration giving 50% growth inhibition) with M14 is 3.24 µM (inactive); with COLO 205, 6.47 µM (inactive); with HCT-15, 2.57 µM; in the experiment on KM12 it was 2.72 µM (inactive); in the experiment on TK-10, 7.78 µM (inactive); with HL-60, 3.1 µM (inactive). The GI50 is 3.48 µM (inactive) in the experiment on HT-29; 6.87 µM (inactive) in the experiment with UACC-257; 3.55 µM (inactive) with MCF7; 1.67 µM (inactive) with NCI-H522; 5.68 µM (inactive) in the experiment with SNB-75; 2.02 µM (inactive) in the experiment on SF-539. In addition, the GI50 with SK-MEL-5 is 10.7 µM (inactive); in the experiment on NCI-H226, 26.6 µM (inactive); in the experiment on 786-0, 2.47 µM (inactive); in the experiment on MOLT-4, 4.69 µM (inactive); in the experiment on SF-295, 11 µM (inactive); in the experiment on MDA-N, 3.04 µM (inactive). The figures for the GI50 with OVCAR-4 and with DU-145 were 3.35 µM (inactive) and 3.1 µM (inactive), respectively.
